Among the data in US20210017174A1, “IDENTIFICATION AND USE OF ERK5 INHIBITOR” (Bayer Aktiengesellschaft, priority 2018, published 2021) are inhibition and IC50 values, retold here.

Molecules are shown by their SMILES.

The target of the first experiment is T1, ERK5 (Homo sapiens, UniProt Q13164).
T1 construct: host or cells: E. coli
T1 sequence (Q13164 1-398): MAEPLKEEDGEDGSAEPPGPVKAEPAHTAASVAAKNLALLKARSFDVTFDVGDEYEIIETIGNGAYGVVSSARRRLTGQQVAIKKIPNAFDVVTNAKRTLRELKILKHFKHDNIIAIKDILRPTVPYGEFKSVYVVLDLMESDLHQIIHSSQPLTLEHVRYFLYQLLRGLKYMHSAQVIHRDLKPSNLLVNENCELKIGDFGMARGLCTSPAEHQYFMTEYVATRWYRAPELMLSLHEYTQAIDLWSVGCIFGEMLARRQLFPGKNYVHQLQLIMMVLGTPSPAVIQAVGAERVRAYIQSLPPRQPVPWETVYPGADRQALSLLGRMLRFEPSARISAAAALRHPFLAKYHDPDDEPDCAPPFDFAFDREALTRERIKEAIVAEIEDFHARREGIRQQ
The experiment can be described thus: TR-FRET-based Erk5 activity inhibition assay (biochemical assay ERK5). As to conditions: @ 20 μM; read-out: inhibition in biochemical ERK5 assay at a single concentration. In general terms: TR-FRET usually uses a lanthanide donor and a delayed reading to cut background.
Regarding `COc1cc2ncnc(C3CCN(C(=O)c4ccccc4OC(F)(F)F)CC3)c2cc1OC` [Example 28, [4-(6,7-Dimethoxyquinazolin-4-yl)piperidin-1-yl][2-(trifluoromethoxy)phenyl]-methanone], the inhibition at 20 µM worked out at 16%.
Still for that read-out and setting: with `O=C(O)c1ccc2c(C3CCN(C(=O)c4ccc(OC(F)(F)F)cc4)CC3)ncnc2c1` [Example 32, 4-{1-[4-(Trifluoromethoxy)benzoyl]piperidin-4-yl}quinazoline-7-carboxylic Acid] the figure was 44.2%.

The same experiment, now with this note: TR-FRET, 250 μM ATP, 1 μM substrate peptide, 60 min at 22° C.; read-out: IC50 value biochemiocal ERK5 asssay.
On to `COc1cc2ncnc(C3CCN(C(=O)c4ccc(OC(F)(F)F)cc4F)CC3)c2cc1OC` [Example 2, [4-(6,7-Dimethoxyquinazolin-4-yl)piperidin-1-yl][2-fluoro-4-(trifluoromethoxy)phenyl]methanone], for which the IC50 came to 93.1 nM.
Turning to `COc1cc2ncnc(C3CCN(C(=O)c4ccc(Cl)cc4)CC3)c2cc1OC` [Example 4, 4-[1-(4-Chlorobenzoyl)piperidin-4-yl]-6,7-dimethoxyquinazoline], the IC50 was 770 nM.
With `COc1cc2ncnc(C3CCN(C(=O)c4ccc(COC(F)(F)F)cc4)CC3)c2cc1OC` [Example 5, [4-(6,7-Dimethoxyquinazolin-4-yl)piperidin-1-yl]{4-[(trifluoromethoxy)methyl]phenyl}methanone], the IC50 turned out to be 1140 nM.
Take `COc1cc2ncnc(C3CCN(C(=O)c4ccccc4)CC3)c2cc1OC` [Example 9, [4-(6,7-Dimethoxyquinazolin-4-yl)piperidin-1-yl](phenyl)methanone]: the IC50 came to 6170 nM.
Turning to `COc1cc2ncnc(C3CCN(C(=O)c4ccc(Br)cc4)CC3)c2cc1OC` [Example 12, (4-Bromophenyl)[4-(6,7-dimethoxyquinazolin-4-yl)piperidin-1-yl]methanone], the IC50 came to 190 nM.
The same measure, in the same setting: for `COc1cc2ncnc(C3CCN(C(=O)c4ccc(SC(F)(F)F)cc4)CC3)c2cc1OC` [Example 16, [4-(6,7-Dimethoxyquinazolin-4-yl)piperidin-1-yl]{4-[(trifluoromethyl)sulfanyl]-phenyl}methanone] the value was 159 nM; for `CCCCOc1ccc(C(=O)N2CCC(c3ncnc4cc(OC)c(OC)cc34)CC2)cc1` [Example 17, (4-Butoxyphenyl)[4-(6,7-dimethoxyquinazolin-4-yl)piperidin-1-yl]methanone], 111 nM; for `COc1cc2ncnc(C3CCN(C(=O)c4ccc(C(C)C)cc4)CC3)c2cc1OC` [Example 18, [4-(6,7-Dimethoxyquinazolin-4-yl)piperidin-1-yl][4-(propan-2-yl)phenyl]-methanone], 358 nM.
Regarding `COc1cc2ncnc(C3CCN(C(=O)c4ccc(OC(F)F)cc4)CC3)c2cc1OC` [Example 19, [4-(Difluoromethoxy)phenyl][4-(6,7-dimethoxyquinazolin-4-yl)piperidin-1-yl]methanone], the IC50 is 165 nM.
On to `CCCc1ccc(C(=O)N2CCC(c3ncnc4cc(OC)c(OC)cc34)CC2)cc1` [Example 20, [4-(6,7-Dimethoxyquinazolin-4-yl)piperidin-1-yl](4-propylphenyl)methanone], for which the IC50 was determined as 281 nM.
For `COc1cc2ncnc(C3CCN(C(=O)c4ccc(COCC(F)(F)F)cc4)CC3)c2cc1OC` [Example 21, [4-(6,7-Dimethoxyquinazolin-4-yl)piperidin-1-yl]{4-[(2,2,2-trifluoroethoxy)methyl]phenyl}-methanone], the IC50 is 2660 nM.
Turning to `COc1cc2ncnc(C3CCN(C(=O)c4ccc(OC(F)(F)F)c(F)c4)CC3)c2cc1OC` [Example 22, [4-(6,7-Dimethoxyquinazolin-4-yl)piperidin-1-yl][3-fluoro-4-(trifluoromethoxy)phenyl]methanone], the IC50 worked out at 88.5 nM.
Same read-out and setting: with `COCCOc1ccc(C(=O)N2CCC(c3ncnc4cc(OC)c(OC)cc34)CC2)cc1` [Example 24, [4-(6,7-Dimethoxyquinazolin-4-yl)piperidin-1-yl][4-(2-methoxyethoxy)phenyl]-methanone] the figure was 9660 nM; with `NC(=O)c1ccc2c(C3CCN(C(=O)c4ccc(OC(F)(F)F)cc4)CC3)ncnc2c1` [Example 33, 4-{1-[4-(Trifluoromethoxy)benzoyl]piperidin-4-yl}quinazoline-7-carboxamide], 253 nM; with `N#Cc1ccc2c(C3CCN(C(=O)c4ccc(OC(F)(F)F)cc4)CC3)ncnc2c1` [Example 34, 4-{1-[4-(Trifluoromethoxy)benzoyl]piperidin-4-yl}quinazoline-7-carbonitrile], 506 nM.
The same measure, in the same setting: with `O=C(c1ccc(OC(F)(F)F)cc1)N1CCC(c2ncnc3cc(O)ccc23)CC1` [Example 36, [4-(7-Hydroxyquinazolin-4-yl)piperidin-1-yl][4-(trifluoromethoxy)phenyl]-methanone] the figure was 192 nM; with `Nc1ccc2c(C3CCN(C(=O)c4ccc(OC(F)(F)F)cc4)CC3)ncnc2c1` [Example 37, [4-(7-Aminoquinazolin-4-yl)piperidin-1-yl][4-(trifluoromethoxy)phenyl]-methanone], 867 nM.
Same read-out and setting: for `CC(=O)Nc1ccc2c(C3CCN(C(=O)c4ccc(OC(F)(F)F)cc4)CC3)ncnc2c1` [Example 38, N-(4-{1-[4-(Trifluoromethoxy)benzoyl]piperidin-4-yl}quinazolin-7-yl)acetamide] the value was 1270 nM.
Turning to `CS(=O)(=O)Nc1ccc2c(C3CCN(C(=O)c4ccc(OC(F)(F)F)cc4)CC3)ncnc2c1` [Example 39, N-(4-{1-[4-(Trifluoromethoxy)benzoyl]piperidin-4-yl}quinazolin-7-yl)methane-sulfonamide], the IC50 was found to be 351 nM.
Take `O=C(c1ccc(OC(F)(F)F)cc1)N1CCC(c2ncnc3cc(Br)ccc23)CC1` [Example 40, [4-(7-Bromoquinazoline-4-yl)piperidin-1-yl][4-(trifluoromethoxy)phenyl]-methanone]: the IC50 stood at 224 nM.
In the case of `CN(C)C(=O)c1ccc2c(C3CCN(C(=O)c4ccc(OC(F)(F)F)cc4)CC3)ncnc2c1` [Example 42, N,N-Dimethyl-4-{1-[4-(trifluoromethoxy)benzoyl]piperidin-4-yl}quinazoline-7-carboxamide], the 50% inhibitory concentration (IC50) came to 980 nM.
As for `O=C(c1ccc2c(C3CCN(C(=O)c4ccc(OC(F)(F)F)cc4)CC3)ncnc2c1)N1CCCC1` [Example 43, Pyrrolidin-1-yl(4-{1-[4-(trifluoromethoxy)benzoyl]piperidin-4-yl}quinazolin-7-yl)methanone], the IC50 amounted to 1590 nM.
`O=C(c1ccc2c(C3CCN(C(=O)c4ccc(OC(F)(F)F)cc4)CC3)ncnc2c1)N1CCOCC1` [Example 44, Morpholin-4-yl(4-{1-[4-(trifluoromethoxy)benzoyl]piperidin-4-yl}quinazolin-7-yl)methanone]: the IC50 turned out to be 2240 nM.
With `O=C(Nc1ccccc1)c1ccc2c(C3CCN(C(=O)c4ccc(OC(F)(F)F)cc4)CC3)ncnc2c1` [Example 45, N-Phenyl-4-{1-[4-(trifluoromethoxy)benzoyl]piperidin-4-yl}quinazoline-7-carboxamide], the IC50 is 3260 nM.
Turning to `CC(C)COc1ccc2c(C3CCN(C(=O)c4ccc(OC(F)(F)F)cc4)CC3)ncnc2c1` [Example 46, {4-[7-(2-Methylpropoxy)quinazolin-4-yl]piperidin-1-yl}[4-(trifluoromethoxy)-phenyl]methanone], the IC50 came out at 293 nM.
`O=C(c1ccc(OC(F)(F)F)cc1)N1CCC(c2ncnc3cc(OCC4COC4)ccc23)CC1` [Example 48, {4-[7-(Oxetan-3-ylmethoxy)quinazolin-4-yl]piperidin-1-yl}[4-(trifluoromethoxy)-phenyl]methanone]: the IC50 amounted to 270 nM.
Still for that read-out and setting: with `O=C(c1ccc(OC(F)(F)F)cc1)N1CCC(c2ncnc3cc(N4CCCCC4=O)ccc23)CC1` [Example 55, 1-(4-{1-[4-(Trifluoromethoxy)benzoyl]piperidin-4-yl}quinazolin-7-yl)piperidin-2-one] the figure was 1300 nM; with `CN(C)CCOc1ccc2c(C3CCN(C(=O)c4ccc(OC(F)(F)F)cc4)CC3)ncnc2c1` [Example 56, Formic Acid—(4-{7-[2-(dimethylamino)ethoxy]quinazolin-4-yl}piperidin-1-yl)[4-(trifluoromethoxy)phenyl]methanone (1:1)], 198 nM.
Regarding `O=C(c1ccc(OC(F)(F)F)cc1)N1CCC(c2ncnc3ccccc23)CC1` [Example 58, [4-(Quinazolin-4-yl)piperidin-1-yl][4-(trifluoromethoxy)phenyl]methanone], the IC50 was determined as 1680 nM.
In the case of `COc1ccc2c(C3CCN(C(=O)c4ccc(OC(F)(F)F)cc4C)CC3)ncnc2c1` [Example 61, [4-(7-Methoxyquinazolin-4-yl)piperidin-1-yl][2-methyl-4-(trifluoromethoxy)-phenyl]methanone], the IC50 is 504 nM.
Same read-out and setting: for `COc1ccc2c(C3CCN(C(=O)c4ccc(OC(F)(F)F)c(C)c4)CC3)ncnc2c1` [Example 62, [4-(7-Methoxyquinazolin-4-yl)piperidin-1-yl][3-methyl-4-(trifluoromethoxy)-phenyl]methanone] the value was 274 nM; for `CC(C)(O)COc1ccc2c(C3CCN(C(=O)c4ccc(OC(F)(F)F)cc4)CC3)ncnc2c1` [Example 63, {4-[7-(2-Hydroxy-2-methylpropoxy)quinazolin-4-yl]piperidin-1-yl}[4-(trifluoro-methoxy)phenyl]-methanone], 274 nM.

A further experiment has as its system SN12C-MEF2-luc (clone #37) reporter cell line. The experiment can be described thus: Luciferase reporter assay in SN12C-MEF2-luc cells (EGF-stimulated, MEF2-responsive luciferase).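 Further: serially diluted compounds at 37 °C, EGF with DMSO as maximum signal and EGF with a 10 µM reference inhibitor as minimum (full inhibition).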 As to conditions: Homo sapiens, 16 h compound incubation, then EGF 100 ng/ml for 2 h, ONE-Glo luminescence. Type of experiment: cell-based.
Turning to `COc1cc2ncnc(C3CCN(C(=O)c4ccc(OC(F)(F)F)cc4F)CC3)c2cc1OC` [Example 2, [4-(6,7-Dimethoxyquinazolin-4-yl)piperidin-1-yl][2-fluoro-4-(trifluoromethoxy)phenyl]methanone], inhibition was half-maximal at 935 nM (IC50).
The same measure, in the same setting: with `COc1cc2ncnc(C3CCN(C(=O)c4ccc(COC(F)(F)F)cc4)CC3)c2cc1OC` [Example 5, [4-(6,7-Dimethoxyquinazolin-4-yl)piperidin-1-yl]{4-[(trifluoromethoxy)methyl]phenyl}methanone] the figure was 11300 nM; with `COc1cc2ncnc(C3CCN(C(=O)c4ccc(SC(F)(F)F)cc4)CC3)c2cc1OC` [Example 16, [4-(6,7-Dimethoxyquinazolin-4-yl)piperidin-1-yl]{4-[(trifluoromethyl)sulfanyl]-phenyl}methanone], 1720 nM; with `CCCCOc1ccc(C(=O)N2CCC(c3ncnc4cc(OC)c(OC)cc34)CC2)cc1` [Example 17, (4-Butoxyphenyl)[4-(6,7-dimethoxyquinazolin-4-yl)piperidin-1-yl]methanone], 13100 nM.
On the same count and under the same terms, with `COc1cc2ncnc(C3CCN(C(=O)c4ccc(OC(F)(F)F)c(F)c4)CC3)c2cc1OC` [Example 22, [4-(6,7-Dimethoxyquinazolin-4-yl)piperidin-1-yl][3-fluoro-4-(trifluoromethoxy)phenyl]methanone] the figure was 1230 nM.
Regarding `CN1CCN(c2cnc3c(C4CCN(C(=O)c5ccc(OC(F)(F)F)cc5N)CC4)ncnc3c2)CC1` [Example 81, [2-Amino-4-(trifluoromethoxy)phenyl]{4-[7-(4-methylpiperazin-1-yl)pyrido[3,2-d]pyrimidin-4-yl]piperidin-1-yl}methanone], 115 nM corresponded to half-maximal inhibition (IC50).

A word on the IC50: it is the concentration that gives 50% inhibition.
